Assay results reported in patent US11524955B2, “2,4-diamino-pyrimidine compounds and method for making and using the compounds” (Rigel Pharmaceuticals, Inc., priority 2016, dated 2022).
Like-named read-outs stand apart in the source and are kept apart here.

Key:
[1] = test system: IL-23, dendritic cells; assay: IL-23 assay, human primary monocyte-derived dendritic cells, LPS stimulated, ELISA; assay type: cell-based; conditions: Dendritic cell
Procedure: (§1) IL-23 assays: THP1 cells or human primary monocyte-derived dendritic cells (DC) were primed overnight with IFNg. Following one hour preincubation with compound, cells were stimulated overnight with LPS. IL-23 released into the media was quantitated by ELISA.

[2] = molecular target: T1, IRAK4 (Homo sapiens, UniProt Q9NWZ3); assay: IRAK4 biochemical assay, ADP-Glo kinase assay
T1 sequence (Q9NWZ3 1-460): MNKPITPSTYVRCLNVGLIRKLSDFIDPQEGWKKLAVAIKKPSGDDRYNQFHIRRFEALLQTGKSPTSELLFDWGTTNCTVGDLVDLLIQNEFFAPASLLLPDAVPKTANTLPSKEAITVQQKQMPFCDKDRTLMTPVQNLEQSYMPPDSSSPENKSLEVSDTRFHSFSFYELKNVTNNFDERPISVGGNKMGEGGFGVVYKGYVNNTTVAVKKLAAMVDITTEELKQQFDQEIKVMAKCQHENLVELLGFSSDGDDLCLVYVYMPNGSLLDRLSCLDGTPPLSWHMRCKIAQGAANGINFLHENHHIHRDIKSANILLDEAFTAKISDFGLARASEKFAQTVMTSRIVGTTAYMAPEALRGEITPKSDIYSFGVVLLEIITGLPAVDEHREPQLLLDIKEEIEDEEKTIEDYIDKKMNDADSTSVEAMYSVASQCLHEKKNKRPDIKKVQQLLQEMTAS
Procedure: (§2) IRAK4 and TAK1 biochemical assays: kinase activity was measured by ADP-Glo kinase assay (Promega).

[3] = test system: IL-8, HUVEC; assay: IL-8 assay, HUVEC, ELISA; assay type: cell-based, human; conditions: Homo sapiens
[4] = test system: IL-23, THP1 cells; assay: IL-23 assay, THP1 cells primed with IFNg, LPS stimulated, ELISA; assay type: cell-based; conditions: Homo sapiens, THP-1
Procedure: as §1

[5] = molecular target: T2, TAK1 (Homo sapiens, UniProt O43318); assay: TAK1 biochemical assay, ADP-Glo kinase assay
T2 sequence (O43318 1-303 limits assumed): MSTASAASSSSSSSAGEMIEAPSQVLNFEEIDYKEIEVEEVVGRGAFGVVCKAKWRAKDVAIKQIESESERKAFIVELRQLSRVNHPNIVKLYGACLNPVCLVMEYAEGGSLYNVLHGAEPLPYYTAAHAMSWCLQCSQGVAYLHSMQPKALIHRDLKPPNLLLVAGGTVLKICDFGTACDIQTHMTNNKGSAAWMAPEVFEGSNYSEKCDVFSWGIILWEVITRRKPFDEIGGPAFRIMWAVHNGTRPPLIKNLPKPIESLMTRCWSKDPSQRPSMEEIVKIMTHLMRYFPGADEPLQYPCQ
Procedure: as §2

[6] = test system: IL-6, HUVEC; assay: IL-6 assay, HUVEC, ELISA; assay type: cell-based, human; conditions: Homo sapiens

For `NC(=O)[C@@H]1[C@H](Nc2nc(Nc3cccc(C(=O)N4CCCC4)c3)ncc2-c2ccnc(F)c2)[C@H]2C=C[C@@H]1C2` [Compound 16, (1S,2S,3R,4R)-3-((5-(2-fluoropyridin-4-yl)-2-((3-(pyrrolidine-1-carbonyl)phenyl)amino)pyrimidin-4-yl)amino)bicyclo[2.2.1] hept-5-ene-2-carboxamide], the IC50 ([1]; LPS stimulated, 10 pt, read-out: IL23-P19, ELISA, Dendritic, LPS, 10 pt) was < 250 nM, the IC50 ([1]; LPS, read-out: IL23 (Dentritic Cells, LPS) IC50) was 110 nM and the IC50 [2] was 3 nM. It also gave an IC50 ([3]; read-out: IL8 (HUVEC, IL-1β) IC50) of 250 nM, an IC50 ([3]; read-out: IL8 (HUVEC, LPS) IC50) of 1000 nM and an IC50 ([3]; read-out: IL8 (HUVEC, TNFα) IC50) of 3000 nM. For the same compound, the IC50 ([4]; THP1 cells, IFNy primed, LPS stimulated, 10 pt, read-out: IL23-p19 ELISA, THP1-IFNy, LPS, 10 pt) was < 100 nM, the IC50 ([4]; THP cells, LPS, read-out: IL23 (THP, LPS) IC50) was 100 nM and the IC50 ([4]; read-out: IL23 (LPS induced) IC50) was 100 nM. The IC50 [5] was 17 nM, the IC50 ([6]; read-out: IL6 (HUVEC, IL-1β) IC50) was 110 nM and the IC50 ([6]; read-out: IL6 (HUVEC, LPS) IC50) was 120 nM. The IC50 ([6]; read-out: IL6 (HUVEC, TNFα) IC50) was 1200 nM.
